Source: patent US12247022B2, “Combinations for treatment of NASH/NAFLD and related diseases” (Pfizer Inc., priority 2018, dated 2025)

Assays:
Format in all cases: in vivo, rat
Collagen = assay: Hepatic Picrosirius red staining (collagen), CDAHFD fed rats; details: twice daily for 6 weeks; Compound A 5 mg/kg, Compound D 30 mg/kg, or co-administration; 12 weeks on CDAHFD
Procedure: (§1) A randomized, vehicle-controlled, 5-parallel arm study was conducted in male Wistar-Han rats (Charles River (Boston, MA)) fed a choline-deficient and high fat diet (CDAHFD) (Research diets; A16092003) to identify differences in improvements in markers of hepatic inflammation and fibrosis when administering either Compound A or Compound D alone as monotherapy or in combination. Standard laboratory conditions were used to house 60 rats (˜200 g); they were double housed and kept under 12:12-hour reverse light-dark schedule (lights off at 8:00 AM). Rats were fed choline deficient and high fat diet (CDAHFD) beginning 6-weeks prior to initiation of the study. Rats, randomized into 4 dosing groups (n=12/group), received twice daily administration of vehicle, Compound A (5 mg/kg) monotherapy, Compound D (30 mg/kg) monotherapy, or co-administration Compound A (5 mg/kg) and Compound D (30 mg/kg) for a period of 6-weeks. […] Histology was assessed following 6-weeks of drug administration which corresponded to 12 weeks on the CDAHFD. […]
(§2) Following the 12-weeks on CDAHFD, the animals were sacrificed by CO2 asphyxiation. […] A portion of the pulverized liver sample from each animal was processed and analyzed for gene expression markers of fibrogenesis. Rat taqman probes against […]SMA and COL1A1 were all assessed using Actb as housekeeping gene on qPCR. […]

[1] = system: fatty acid synthase (FASN); assay: Hepatic lipogenic gene expression (qPCR), Western diet fed rats: FASN; details: Actb housekeeping gene
Procedure: (§3) A randomized, vehicle-controlled, 8-parallel arm study was conducted in male Sprague-Dawley rats (Charles River (Boston, MA)) to obtain circulating and hepatic TG levels. Standard laboratory conditions were used to house 96 rats (˜200 g); they were double housed and kept under 12:12-hour reverse light-dark schedule (lights off at 8:00 AM). Rats were randomized into chow or Western diet groups and dose groups upon arrival and were given a 14-day lead-in period on either standard rat chow or Western diet prior to the start of the study. Standard Laboratory Rodent chow diet, 5053, was from LabDiet (PMI, St Louis, Missouri). Western Diet, D12079Bi, was from Research Diets (New Brunswick, New Jersey).
(§4) Starting on Day 1 of the study, rats were dosed orally (10 mL/kg) with either vehicle control (0.5% MC (wt/volume %) in dionized water), low or high doses of Compound A (1 mg/kg or 10 mg/kg QD, respectively), low or high doses of Compound D (5 mg/kg or 30 mg/kg BID respectively), or co-administration of low doses (Compound A at 1 mg/kg QD and Compound D at 5 mg/kg BID), or co-administration of high doses (Compound A at 10 mg/kg QD and Compound D at 30 mg/kg BID) […]
(§5) Another portion of the pulverized liver was processed and analyzed for lipogenic gene expression. Rat taqman probes against ACC1, FASN, SCD1, PCSK9 and SREBP-1c were all assessed using Actb as housekeeping gene on qPCR.

[2] = system: alpha smooth muscle actin (αSMA); assay: Hepatic αSMA immunohistochemistry, CDAHFD fed rats; details: twice daily for 6 weeks; Compound A 5 mg/kg, Compound D 30 mg/kg, or co-administration; 12 weeks on CDAHFD
Procedure: as §1, §2

[3] = system: Ionized calcium binding adaptor molecule 1 (Iba1); assay: Hepatic Iba1 staining, CDAHFD fed rats; details: twice daily for 6 weeks; Compound A 5 mg/kg, Compound D 30 mg/kg, or co-administration; 12 weeks on CDAHFD
Procedure: as §1, §2

[4] = system: acetyl-CoA carboxylase (ACC1); assay: Hepatic lipogenic gene expression (qPCR), Western diet fed rats: ACC1; details: Actb housekeeping gene, Day 28 liver
Procedure: as §3, §4, §5

SCD1 = assay: Hepatic lipogenic gene expression (qPCR), Western diet fed rats: SCD1; details: Actb housekeeping gene, Day 28 liver
Procedure: as §3, §4, §5

[5] = system: Western diet fed Sprague Dawley rats; assay: Fasted plasma triglyceride (TG), Western diet fed rats, oral dosing; details: oral monotherapy, 4 hour fast, 2 hours post-dose
Procedure: as §3
For these studies, vehicle was prepared to make a 0.5% (wt/volume) of methyl cellulose (MC, Sigma Aldrich; 274429) in deionized water. The stock solutions with either Compound A (prepared from the tris salt) or Compound D were prepared with the respective compound to provide a concentration such that 10 ml of the solution would deliver the desired mg/kg dosage amount, where the average weight of the rats used was about 200 g.
Starting on Day 1 of the study, rats were dosed orally (10 mL/kg) with either vehicle control (0.5% MC (wt/volume %) in dionized water), low or high doses of Compound A (1 mg/kg or 10 mg/kg QD, respectively), low or high doses of Compound D (5 mg/kg or 30 mg/kg BID respectively), or co-administration of low doses (Compound A at 1 mg/kg QD and Compound D at 5 mg/kg BID), or co-administration of high doses (Compound A at 10 mg/kg QD and Compound D at 30 mg/kg BID)
Fasted plasma analytes: Blood for determining fasted plasma TG was collected after a 4 hour fast, 2 hours post-dose (2 hours into the dark cycle) via lateral tail vein, transferred to BD Microtainer tubes coated with K2EDTA (PN365974), and centrifuged at 4° C. The resulting plasma samples were then analyzed on a Siemens Chemistry XPT clinical analyzer (Malven, PA) using Siemens triglycerides 2 assay reagents (ref 10335892).

Row | SMILES | reduction of Picosrius red (PSR) staining (Collagen) [%] | hepatic FASN gene expression relative to Western Diet fed and vehicle treated animals ([1]; Compound A high dose only (10 mg/kg QD)) | reduction of liver αSMA staining [2] [%] | reduction of Iba1 staining [3] | hepatic ACC1 gene expression relative to Western Diet fed and vehicle treated animals [4] | hepatic SCD1 gene expression relative to Western Diet fed and vehicle treated animals (SCD1) | increase in fasted plasma TG, relative to vehicle administered Western diet fed rats ([5]; high dose (Compound A 10 mg/kg QD)) [fold] | increase in fasted plasma TG, relative to vehicle administered Western diet fed rats ([5]; low dose (Compound A 1 mg/kg QD)) [fold] | hepatic FASN gene expression relative to Western Diet fed and vehicle treated animals ([1]; Day 28 liver) | reduction of fasted plasma TG, relative to vehicle administered Western diet fed rats ([5]; high dose (Compound D 30 mg/kg BID)) [%] | reduction of fasted plasma TG, relative to vehicle administered Western diet fed rats ([5]; low dose (Compound D 5 mg/kg BID)) [%]
1 | COc1cc(C(=O)N2CCC3(CC2)CC(=O)c2c(cnn2C(C)C)C3)cc(-c2ccc(C(=O)O)cc2)n1 [Compound A, 4-(4-(1-isopropyl-7-oxo-1,4,6,7-tetrahydrospiro[indazole-5,4′-piperidine]-1′-carbonyl)-6-methoxypyridin-2-yl)benzoic acid] | 26 | trended to further increase | 41 | 15% | trended to further increase | trended to further increase | 1.7 | 2.4 | – | – | –
2 | CCOc1cccnc1Oc1cncc(-c2ncc(C(=O)N[C@H]3CCOC3)cn2)c1 [Compound D, (S)-2-(5-((3-ethoxypyridin-2-yl)oxy)pyridin-3-yl)-N-(tetrahydrofuran-3-yl)pyrimidine-5-carboxamide] | 20 | – | 23 | did not alter | decreased expression | decreased expression | – | – | decreased expression | 35 | 20
